System: THP-1 cell line
Experiment: Metabolites in culture medium of THP-1 cells under low oxygen with HIF-1 inhibition (LC/Q-TOF MS)
Type: cell-based, human
Conditions: THP-1 culture medium, low oxygen (1% O2)
Method: A THP-1 cell line, a human monocyte-derived cell line was cultured in the conditions of regular oxygen (21% oxygen), low oxygen (1% oxygen), and regular oxygen after low oxygen (reoxygenation), and then, the metabolites included in the culture media were identified and quantified using a LC/Q-TOF MS analysis as follows.
The human-derived monocyte cells (THP-1) (Korean Cell Line Bank, KCLB No. 40202) at 5×10^5 cells/4 mL medium were cultured in DMEM (Dulbecco's modified Eagle's medium) including 10% FBS (fetal bovine serum) under the condition of regular oxygen (21% O2, 5% CO2) at 37° C. for 24 hours, the condition of low oxygen (1% O2, 5% CO2) at 37° C. for 24 hours, or the condition of regular oxygen for 16 hours after low oxygen for 8 hours (reoxygenation) at 37° C.
After that, the media without the cells were isolated to obtain the samples to be analyzed. The media were subjected to a centrifugation at 3000 rpm and 4° C. to obtain supernatants only. The supernatants were then aliquoted and stored in a −70° C. cryogenic deep-freezer, and were thawed immediately before use.
In order to decrease the expression of a hypoxia-inducible factor-1 (HIF-1), a major regulator in a low oxygen environment, two types of si-HIF-1alpha (#1, 5′-CAAAGUUAAAGCAUCAGG-3′; #2, 5′-UGUACUGUCCUGUGGUGA-3′) were prepared, and then used for transfection into the cells using Lipofectamine RNA iMAX reagents (Life Technologies, USA) following the manufacturer's instruction. In addition, 2-methoxyestradiol (2ME2) and 17-N-Allylamino-17-demethoxygeldanamycin (17-AAG) used (Selleck chemicals) as the inhibitors of HIF-1 were used, and YC-1 was purchased from A.G. Scientific. The cells were treated also with 2ME2 and 17-AAG at the concentrations of 100 μM during the exposure of a low oxygen condition.
H2O (400 μl) at 4° C. and medium (100 μl) were put into a 1.5 ml micro tube so as to be diluted. After that, the sample was mixed well using a vortex, and then was filtered/centrifuged at 4° C. and 14,000 g for 20 minutes to obtain the supernatant thereof. The supernatant was collected in assay vials. In addition, for a QC (quality control) assay, the diluted samples of 50 μl from all the samples were mixed (pooling).
The samples that were prepared as described above were isolated by the system equipped with a reverse column, Zorbax SB-C18, 50×2.1 mm, 1.8 μm (Agilent Technologies, USA) in Binary Agilent 1200 series HPLC (Agilent Technologies). At this time, the assay sample in the amount of 5 μl was injected so as to pass through the column that was heated at 40° C. The metabolite sample was subjected to a gradient elution with 98% solvent A (2 mM ammonium formate and 0.1% formic acid in H2O) and 2% solvent B (0.1% formic acid in methanol) at the rate of 400 μl/min for 21 minutes. In order to avoid a cross-contamination, a blank run was performed between the sample runs.
ESI algorithm was used by coupling an Agilent 6530 quadrupole time-of-flight (Q-TOF) mass spectrometer (Agilent Technologies) with HPLC. Four centroid data per one second for one spectrum from 100 to 1100 m/z were obtained, and the m/z for all the spectra were calibrated in real time using the reference value externally supplied.
The metabolites were first identified from the mass spectra in the HMDB (http://www.hmdb.ca/) and METLIN (http://metlin.scripps.edu/) database using a software (Agilent MassHunter Qualitative Analysis (version B.05.00), Agilent Mass Profiler Professional (version B.02.02)). After that, the cleavage pattern by the LC/MS/MS assay of the corresponding metabolite was subjected to an additional confirmation work as compared to a practical standard material (Cayman, Ann Arbor, Mich., USA).
The relative concentration of the corresponding metabolites was calculated using the chromatograph area of the respective metabolite in the culture solution obtained from the corresponding cells. […]

[1] = treated with HIF-1 inhibitor (2ME2 and 17-AAG at 100 μM), FIG. 4
[2] = HIF-1 expression inhibited by si-RNA, FIG. 3

Row | Molecule | 5-HETE that was increased under the low oxygen condition (H) [1] | 5-oxoETE that was increased under the low oxygen condition (H) [1] | 5-HETE that was increased under the low oxygen condition (H) [2] | 5-oxoETE that was increased under the low oxygen condition (H) [2]
1 | COc1cc2c(cc1O)CC[C@@H]1[C@@H]2CC[C@]2(C)[C@@H](O)CC[C@@H]12 [2ME2, 2-methoxyestradiol] | decreased | decreased | – | –
2 | C=CCNC1=C2C[C@@H](C)C[C@H](OC)[C@H](O)[C@@H](C)/C=C(\C)[C@H](OC(N)=O)[C@@H](OC)/C=C\C=C(/C)C(=O)NC(=CC1=O)C2=O [17-AAG, 17-N-Allylamino-17-demethoxygeldanamycin] | decreased | decreased | – | –
3 | OCc1ccc(-c2nn(Cc3ccccc3)c3ccccc23)o1 [YC-1] | decreased | decreased | – | –
4 | si-HIF-1a#1: si-RNA against HIF-1alpha, 5′-CAAAGUUAAAGCAUCAGG-3′ (chemistry not given here) | – | – | decreased | decreased
5 | si-HIF-1a#2: si-RNA against HIF-1alpha, 5′-UGUACUGUCCUGUGGUGA-3′ (chemistry not given here) | – | – | decreased | decreased

Reference: patent publication US20160124002A1, “METHOD FOR DETECTING HYPOXIA OR DIAGNOSING HYPOXIA-RELATED DISEASES” (SEOUL NATIONAL UNIVERSITY R&DB FOUNDATION, priority 2013, published 2016)
